Assay results from patent US9795593B2, “Use of 3-(3-[1,2,4]-triazolo)-oxatriazolium-5-olate for treating sexual disorders” (LIMITED LIABILITY COMPANY “KONSORTSIUM-PIK”, priority 2014, dated 2017).
Marks after values point to notes of the source that are not given here.

What was measured:
endothelin-1 (ET-1) = test: Serum endothelin-1 (ELISA) in the model of arterial hypertension with endothelial dysfunction; type: in vivo, rat; details: for ET-1: rat serum at the end of experiment, M ± m, n = 8
Method: (§1) In the model of arterial hypertension with endothelial dysfunction, endothelial NOS blocker N-nitro-L-arginine methyl ester (L-NAME) was administered intraperitoneally, 25 mg/kg, daily, for 7 days. The blocker was administered in 3% sodium chloride in the dose 1 ml/100 g of body weight. This combination of NO-synthase inhibitor with hypertonic solution provides RAAS activation, aldosterone discharge, retention of sodium and water, functional impairment of the vascular endothelium.
(§2) The animals were divided into the arms as follows: 1—intact animals; 2—control group, males (L-NAME+NaCl; physiological saline as placebo); 3—male rats that received AS-6 in the dose 0.5 mg/kg (Dose 1); 4—male rats that received AS-6 in the dose 5 mg/kg (Dose 2); 5—male rats that received AS-6 in the dose 10 mg/kg (Dose 3); 6—virgin female rats (only in the assessment of the sexual activity). Each group included 8 animals.
(§3) Biochemical parameters were assessed with the use of prearranged kits (USCN Life Science Inc., USA, Bender MedSystems GmbH, Austria, R&D Systems, USA). The measurement was performed with the use of multifunctional photometer Synergy-2 (BioTek Instruments, Inc., USA). All studies were conducted in compliance with current laboratory regulations.
(§4) The assessment of endothelin-1, vascular endothelial growth factor and nitric oxide levels was performed in the rats' serum at the end of experiment with the use of immuno-enzyme analysis and spectrophotometric analysis with species-specific (rat-specific) antibodies.
Quantitative measurement of endothelin-1 (ET-1) was performed with the use of ELISA with USCN Life Science Inc. (USA) kits. Serum samples of the experimental animals (50 mcL) and standards of known concentrations were introduced into the plate wells. Then, 50 mcL of detecting solution (reagent A) were introduced. After 1-hour incubation at 37° C., the wells were 3-fold rinsed, and 100 mcL of detecting solution (reagent B) were introduced into each well. Thereafter, the plate was incubated again at 37° C. for 30 minutes. The plate was rinsed with washing buffer 5 times, and 90 mcL of TMB substrate were introduced into each well. After 15-minute incubation at 37° C., 50 mcL of stop-solution were added. The reaction was read at 450 nm.

[1] = tested on: male Wistar rats, model of arterial hypertension with endothelial dysfunction; test: Blood pressure and heart rate in rat model of arterial hypertension with endothelial dysfunction (L-NAME + 3% NaCl); type: in vivo; details: for DBP / HR / SBP: M ± m, n = 8
Method: as §1
The experiments were performed with the use of 40 white male Wistar rats with the baseline body weight 220-240 g and 20 white virgin female rats 180-200 g. The animals were purchased from Rappolovo farm (Russian Academy of Medical Sciences, Saint-Petersburg). Besides mixed fodder, the rats received bread.
AS-6 substance (lot 080909) containing 101.0% of the active ingredient was used, according to the Protocol of Analysis No. 80-Pr, dated by 25 Sep. 2009 (Federal State Unitary Enterprise Special Technology and Construction Bureau “Tekhnolog”). The substance was used for preparation of solutions for daily oral administration based on the physiological saline.
The physiological saline was used as placebo. The solutions were administered daily through the atraumatic metallic feeding tube with fire-polished olive with the use of dosing syringe.
as §2
The measurement of the blood pressure in rats was performed with the use of the system for non-invasive blood pressure measurement for small animals within the complex Polygraph for electrophysiological studies (MP150WSW “BIOPAC Systems, Inc.”, USA.)
Rats were placed into special boxes. HR and BP (SBP and DBP) were recorded several minutes after the stabilization of the measured parameters. The parameters were measured on the tails with the use of piezoelectric probe and corresponding cuff, several minutes following animal placement on the thermostated sheet that maintained the temperature in the chambers within 26-27° C. The functional cardiovascular testing was performed before (at baseline) and after the administration of NOS inhibitor and at the end of treatment.

sGC in the aortic tissue = details: aorta of Wistar rats; cited from earlier work
[2] = tested on: purified sGC obtained of the rabbit's lungs; details: AS-6 100 mcmol/L, in vitro; cited from earlier work
nitric oxide (NO) = test: Serum unbound nitric oxide (spectrophotometry, Griss reagent) in the model of arterial hypertension with endothelial dysfunction; type: in vivo, rat; details: for NO: rat serum at the end of experiment, M ± m, n = 8
Method: as §1, §2, §3, §4
Quantitative measurement of unbound nitric oxide was performed with the use spectrophotometry with R&D Systems kits (USA). The proteins were precipitated with zinc sulphate/sodium hydroxide. Serum supernatant samples of the experimental animals (50 mcL) and standards of known concentrations were introduced into the plate wells. Then, 50 mcL of sample diluent, Griss reagent 1 and Griss reagent 2 were added. The reaction was read at 540 and 690 nm after 10-minute incubation at 37° C.

[3] = AS-6 0.5 mg/kg oral daily, After treatment (Day 14)
[4] = AS-6 5 mg/kg oral daily, After treatment (Day 14)
[5] = AS-6 10 mg/kg oral daily, After treatment (Day 14)
[6] = arm AS-6 0.5 mg/kg, Baseline (Day 0), before L-NAME and treatment
[7] = arm AS-6 0.5 mg/kg, Post-dose L-NAME (Day 7), before treatment
[8] = arm AS-6 5 mg/kg, Baseline (Day 0), before L-NAME and treatment
[9] = arm AS-6 5 mg/kg, Post-dose L-NAME (Day 7), before treatment
[10] = arm AS-6 10 mg/kg, Baseline (Day 0), before L-NAME and treatment
[11] = arm AS-6 10 mg/kg, Post-dose L-NAME (Day 7), before treatment

Q: Which results are given for `[O-]c1n[n+](-c2nc[nH]n2)no1` [AS-6, 3-(3-[1,2,4]-triazolo)-oxatriazolium-5-olate]?
A: effect on endothelin-1 levels (endothelin-1 (ET-1); most significant at 10 mg/kg, p=0.010 vs. control): significant favourable changes of endothelin-1 levels; ET-1 (endothelin-1 (ET-1); AS-6 0.5 mg/kg): 2.48 ± 0.50 pg/mL; ET-1 (endothelin-1 (ET-1); AS-6 5.0 mg/kg): 1.75 ± 0.48 pg/mL; ET-1 (endothelin-1 (ET-1); AS-6 10.0 mg/kg): 0.78 ± 0.29 pg/mL; effect on SBP and DBP levels ([1]; AS-6 0.5 mg/kg): did not affect SBP or DBP levels; DBP [1, 3]: 111.9 ± 5.2 mm Hg; HR [1, 3]: 420.0 ± 13.7; SBP [1, 3]: 153.1 ± 7.3 mm Hg; effect on SBP and DBP levels ([1]; AS-6 5 mg/kg): decrease of elevated DBP and unchanged elevated SBP; DBP [1, 4]: 111.5 ± 7.9 mm Hg; HR [1, 4]: 435.9 ± 28.9; SBP [1, 4]: 141.9 ± 7.1 mm Hg; DBP [1, 5]: 102.0 ± 3.2 mm Hg; HR [1, 5]: 404.4 ± 17.6; SBP [1, 5]: 123.4 ± 4.2 mm Hg; effect on blood pressure ([1]; AS-6 10 mg/kg, vs. baseline values and experimental model, p<0.05): normalization of the blood pressure; DBP [1, 6]: 98.7 ± 2.2 mm Hg; HR [1, 6]: 417.6 ± 17.6; SBP [1, 6]: 126.2 ± 2.5 mm Hg; DBP [1, 7]: 113.8 ± 4.6 mm Hg; HR [1, 7]: 351.8 ± 8.7; SBP [1, 7]: 145.0 ± 3.1 mm Hg; DBP [1, 8]: 97.9 ± 3.2 mm Hg; HR [1, 8]: 428.2 ± 22.1; SBP [1, 8]: 123.8 ± 3.4 mm Hg; DBP [1, 9]: 117.0 ± 4.4 mm Hg; HR [1, 9]: 376.0 ± 15.3; SBP [1, 9]: 148.6 ± 4.5 mm Hg; DBP [1, 10]: 98.5 ± 4.7 mm Hg; HR [1, 10]: 393.6 ± 19.1; SBP [1, 10]: 130.5 ± 4.6 mm Hg; DBP [1, 11]: 120.1 ± 5.0 mm Hg; HR [1, 11]: 357.1 ± 14.8; SBP [1, 11]: 149.1 ± 3.4 mm Hg; changes of the heart rate ([1]; control or experimental arm): No significant changes of the heart rate; effect on blood pressure, dose dependence ([1]; peak at 10 mg/kg after 7 days of treatment): dose-dependent decrease of blood pressure; activation of cGMP synthesis compared to baseline (sGC in the aortic tissue): up to 13 fold; sGC activation compared to the basal activity [2]: up to 30 fold; effect on nitric oxide (NO) production (nitric oxide (NO); exceeded the level of treatment-naive animals at 10 mg/kg): dose-dependent increase of nitric oxide (NO) production; NO (nitric oxide (NO); AS-6 0.5 mg/kg): 8.83 ± 1.06 mcmol/l; NO (nitric oxide (NO); AS-6 5.0 mg/kg): 10.75 ± 0.55^ mcmol/l; NO (nitric oxide (NO); AS-6 10.0 mg/kg): 14.08 ± 1.25*^ mcmol/l
